Reference: patent US8361965B2, “Recombinant chimeric protein of neutrophil inhibitory factor and hirugen, and pharmaceutical composition thereof” (Lunan Pharmaceutical Group Corporation, priority 2008, dated 2013)

Columns and labels:
[1] = tested on: blood coagulation system; assay: effects on blood coagulation system of New Zealand rabbits in vivo (APTT, PT, TT); parameters: species or system New Zealand rabbit; PT: unit not given beside the values; APTT / TT: unit not given here
Method: Medicaments were administrated via intravenous injection from marginal ear vein, and 1.8 ml blood was harvested from marginal ear veins at the time of before administration (0 min), and 10 min, 30 min, 60 min, 120 min and 240 min after administration, respectively (the time for injecting is 2 min). 3.2% sodium citrate (9:1) was added for anticoagulation and then mixed and centrifuged at 3000 rpm/min for 3 min. The plasma was send to Department of Clinical Laboratory, Southwest Hospital for determining blood coagulation indexes (APTT, TT and PT) with a full automatic coagulation analyzer and the difference before and after administration was obtained by comparison.

[2] = tested on: platelet aggregation induced by human thrombin; assay: antiplatelet aggregation assay (rabbits dosed i.v., thrombin-induced aggregation of PRP); format: in vivo, Japanese Giant Ear White Rabbits
Method: Platelet aggregation rate was determined by puncture of the central artery of the ear before administration, and then rabbits were randomly divided into 5 groups (4 in each group) based on the platelet aggregation rate and body weight: (1) negative control group (5.12 mg mannitol/kg), (2) high dose TNHH group (4.0 mg/kg), (3) middle dose TNHH group (2.0 mg/kg), (4) low dose TNHH group (1.0 mg/kg), and (5) positive control group (0.1 mg recombinant hirudin/kg). The rabbits in each group were administered at the dose respectively via intravenous injection from the marginal ear vein. Blood samples were collected at the time of 15 min after administration (timed by stopwatch) by puncture of the central artery of the ear to determine the platelet aggregation rate. The method of platelet aggregation rate determination was described as follows: the blood samples were collected by puncture of the central artery of the ear using silicified syringe. 3.8% anticoagulant sodium citrate solution (blood: anticoagulant=9:1) was used. The sample was centrifuged at 200×g for 8 min, and the supernatant obtained was platelet-rich plasma (PRP); then the remaining part was centrifuged again at 2200×g for 10 min, and the supernatant obtained was platelet-poor plasma (PPP). The platelet in PRP was counted as approximate 4.0×10^5/mm^3. According to Born's turbidimetry, a turbidimetric tube with 200 μl PRP and a small magnetic bar was placed in a platelet aggregation instrument and incubated at 37 for 1 min. After calibrating with PPP, the platelet was induced to aggregate by adding inductive human thrombin (0.76 IU/ml) under stirring. The effect of medicaments on the aggregation of platelet was analyzed using the aggregation curve and the maximum aggregation rate obtained from the instrument. The maximum aggregation rate was calculated according to the formula below: […]

[3] = tested on: blood coagulation system; assay: effects on blood coagulation system of New Zealand rabbits in vitro (APTT, PT, TT); format: biochemical, New Zealand rabbit; parameters: PT: unit not given beside the values; APTT / TT: unit not given here
Method: Medicaments were diluted to the following concentrations for use: TNHH: 3.0 mg/ml; 1.0 mg/ml; 333 μg/ml; bivalrudin: 600 μg/ml; 200 μg/ml; 67 μg/ml; Hirudin: 660 μg/ml; 220 μg/ml; 73 μg/ml.
The blood was sampled from six New Zealand rabbits (10×1.8 ml for each one) from marginal ear vein and added into 10 anticoagulation tubes, respectively. 3.2% sodium citrate (9:1) was added for anticoagulation.
20 μl anticoagulated blood was taken from each tube, followed by the addition of 20 μl above diluted medicaments for each tube. 20 μl physiological saline was added into the control tube. Samples were mixed thoroughly and centrifuged at 3000 rpm/min for 3 min, and plasma was send to Department of Clinical Laboratory, Southwest Hospital for determining blood coagulation indexes (APTT, TT and PT) with a full automatic coagulation analyzer and the difference before and after administration was obtained by comparison.

[4] = tested on: rabbit whole blood; assay: in vitro whole blood anticoagulation assay; parameters: species or system white rabbit; conditions: 0.2 ml heparin sodium 1 mg/ml + 1.0 ml rabbit blood; room temperature 15 min
Method: TNHH was diluted to 4 mg/ml, 2 mg/ml, 1 mg/ml, 0.5 mg/ml respectively with phosphate buffer solution (10 mmol/L PB, 0.15 mol/L NaCl, pH7.4). Heparin sodium was prepared to 1 mg/ml with the same buffer solution.
Venous blood was taken from marginal ear vein of the rabbit, and rapidly added into 0#-5# tubes. 0.2 ml of the diluted TNHH samples with different concentrations was added into the 1#-4# tubes, respectively. 0.2 ml phosphate buffer solution was added into the 0# tube, which was used as a negative control. 0.2 ml heparin sodium (1 mg/ml) was added into the 5# tube, which was used as a positive control. The reagents were mixed rapidly and stored at room temperature for 15 min for observing the results.

[5] = tested on: leukocyte adhesion; assay: anti-leukocyte adhesion activity, in vitro comparative analysis; format: cell-based; conditions: in vitro
[6] = Hirudin 0.50 mg/kg i.v., 0 min (before administration)
[7] = Hirudin 0.50 mg/kg i.v., 10 min
[8] = Hirudin 0.50 mg/kg i.v., 30 min
[9] = Hirudin 0.50 mg/kg i.v., 60 min
[10] = Hirudin 0.50 mg/kg i.v., 120 min
[11] = Hirudin 0.50 mg/kg i.v., 240 min
[12] = hirudin 0.73 μg/ml in rabbit blood
[13] = hirudin 2.20 μg/ml in rabbit blood
[14] = hirudin 6.60 μg/ml in rabbit blood
[15] = Bivalrudin 1.50 mg/kg i.v., 0 min (before administration)
[16] = Bivalrudin 1.50 mg/kg i.v., 10 min
[17] = Bivalrudin 1.50 mg/kg i.v., 30 min
[18] = Bivalrudin 1.50 mg/kg i.v., 60 min
[19] = Bivalrudin 1.50 mg/kg i.v., 120 min
[20] = Bivalrudin 1.50 mg/kg i.v., 240 min
[21] = bivalrudin 0.67 μg/ml in rabbit blood
[22] = bivalrudin 2.00 μg/ml in rabbit blood
[23] = bivalrudin 6.00 μg/ml in rabbit blood

In the case of hirudin [reference compound], the APTT [1, 6] is reported as 38.02 ± 6.54, the PT [1, 6] is reported as 6.80 ± 0.28 and the TT [1, 6] is reported as 16.40 ± 1.73. For the same molecule, the APTT [1, 7] was 39.97 ± 5.69, the PT [1, 7] was 7.27 ± 0.22 and the TT [1, 7] was 112.70. For the same molecule, the APTT [1, 8] was 37.72 ± 5.55, the PT [1, 8] was 7.01 ± 0.31 and the TT [1, 8] was 84.93 ± 49.24. The APTT [1, 9] was 35.02 ± 7.59, the PT [1, 9] was 6.95 ± 0.34 and the TT [1, 9] was 58.17 ± 33.19. It also gave an APTT [1, 10] of 32.05 ± 5.69, a PT [1, 10] of 6.97 ± 0.27 and a TT [1, 10] of 30.42 ± 17.09. It also gave an APTT [1, 11] of 32.07 ± 5.97, a PT [1, 11] of 7.08 ± 0.26 and a TT [1, 11] of 16.30 ± 2.32. For the same molecule, the “aggregation ratio, Before administration” value ([2]; hirudin 0.1 mg/kg group) was 58.44 ± 4.42%, the “aggregation ratio, 15 min after administration” value ([2]; hirudin 0.1 mg/kg i.v.) was 4.34 ± 6.88% and the “aggregation ratio, difference” value ([2]; hirudin 0.1 mg/kg i.v., before vs 15 min after) was 54.09 ± 8.69 %. It also gave an APTT [3, 12] of 37.47 ± 6.15, a PT [3, 12] of 7.33 ± 0.33 and a TT [3, 12] of 50.40 ± 8.19. The APTT [3, 13] was 52.85 ± 15.88, the PT [3, 13] was 7.87 ± 0.37 and the TT [3, 13] was 102.77 ± 21.90. For the same molecule, the APTT [3, 14] was 58.43 ± 14.36, the PT [3, 14] was 9.37 ± 1.30 and the TT [3, 14] was 116.40 ± 8.82.

For heparin sodium [reference compound], the “Test results (blood coagulation)” value [4] was “not coagulated and Non-”.

“Bivalrudin: lyophilized powder for injection, manufactured by Chengdu Jiexun Biotechnical Co., Ltd. [reference compound]” gave an APTT [1, 15] of 40.7 ± 5.77, a PT [1, 15] of 6.87 ± 0.21 and a TT [1, 15] of 15.28 ± 1.60. It also gave an APTT [1, 16] of 45.75 ± 7.20, a PT [1, 16] of 8.27 ± 0.67 and a TT [1, 16] of 71.18 ± 23.37. The APTT [1, 17] was 39.33 ± 6.62, the PT [1, 17] was 7.40 ± 0.27 and the TT [1, 17] was 36.12 ± 14.00. For the same molecule, the APTT [1, 18] was 38.03 ± 5.55, the PT [1, 18] was 7.10 ± 0.15 and the TT [1, 18] was 26.68 ± 7.30. It also gave an APTT [1, 19] of 32.68 ± 4.77, a PT [1, 19] of 7.02 ± 0.12 and a TT [1, 19] of 15.40 ± 2.16. It also gave an APTT [1, 20] of 34.57 ± 5.56, a PT [1, 20] of 6.90 ± 0.18 and a TT [1, 20] of 15.50 ± 2.36. For the same molecule, the APTT [3, 21] was 35.12 ± 8.04, the PT [3, 21] was 7.83 ± 0.39 and the TT [3, 21] was 43.22 ± 8.13. It also gave an APTT [3, 22] of 40.75 ± 8.71, a PT [3, 22] of 8.75 ± 0.52 and a TT [3, 22] of 53.67 ± 9.03. It also gave an APTT [3, 23] of 55.00 ± 12.4, a PT [3, 23] of 11.08 ± 1.20 and a TT [3, 23] of 85.38 ± 23.07.

In the case of “Hirogen: artificial dodecapeptide based on the C-terminal 53rd-64th amino acids of hirudin (NGDFEEIPEEYL) (not fully specified) [reference compound]”, the anti-leukocyte adhesion activity [5] is reported as “none”.

B1: TNHH-G15/n3: recombinant TNHH with linker 1 (Gly)15 and linker 2 (GSGG)3: NIF-(Gly)15-FPRP-(GSGG)3-hirugen (protein)
chain: MNEHNLRCPQNGTEMPGFNDSIRLQFLAMHNGYRSKLALGHISITEESESDDDDDFGFLPDFAPRASKMRYLEYDCEAEKSAYMSARNCSDSSSPPEGYDENKYIFENSNNISEAALKAMISWAKEAFNLNKTKEGEGVLYRSNHDISNFANLAWDAREKFGCAVVNCPLGEIDDETNHDGETYATTIHVVCHYPKINKTEGQPIYKVGTPCDDCSEYTKKADNTTSADPVCIPDDGVCFIGSKADYDSKEFYRFRELGGGGGGGGGGGGGGGFPRPGSGGGSGGGSGGNGDFEEIPEEYL
For B1, the anti-leukocyte adhesion activity [5] was 740 Unit/mg.
